Structures can show the parent of a compound that is named as a salt.
Assays:
[1] = molecular target: T1, ATP-binding cassette sub-family C member 4 (Homo sapiens, UniProt O15439); experiment: Inhibition of human MRP4 overexpressed in Sf9 cell membrane vesicles assessed as uptake of [3H]-estradiol-17beta-D-glucuronide in presence of ATP and GSH measured after 20 mins by membrane vesicle transport assay; type: ADME, cell-based
T1 sequence (O15439 whole entry): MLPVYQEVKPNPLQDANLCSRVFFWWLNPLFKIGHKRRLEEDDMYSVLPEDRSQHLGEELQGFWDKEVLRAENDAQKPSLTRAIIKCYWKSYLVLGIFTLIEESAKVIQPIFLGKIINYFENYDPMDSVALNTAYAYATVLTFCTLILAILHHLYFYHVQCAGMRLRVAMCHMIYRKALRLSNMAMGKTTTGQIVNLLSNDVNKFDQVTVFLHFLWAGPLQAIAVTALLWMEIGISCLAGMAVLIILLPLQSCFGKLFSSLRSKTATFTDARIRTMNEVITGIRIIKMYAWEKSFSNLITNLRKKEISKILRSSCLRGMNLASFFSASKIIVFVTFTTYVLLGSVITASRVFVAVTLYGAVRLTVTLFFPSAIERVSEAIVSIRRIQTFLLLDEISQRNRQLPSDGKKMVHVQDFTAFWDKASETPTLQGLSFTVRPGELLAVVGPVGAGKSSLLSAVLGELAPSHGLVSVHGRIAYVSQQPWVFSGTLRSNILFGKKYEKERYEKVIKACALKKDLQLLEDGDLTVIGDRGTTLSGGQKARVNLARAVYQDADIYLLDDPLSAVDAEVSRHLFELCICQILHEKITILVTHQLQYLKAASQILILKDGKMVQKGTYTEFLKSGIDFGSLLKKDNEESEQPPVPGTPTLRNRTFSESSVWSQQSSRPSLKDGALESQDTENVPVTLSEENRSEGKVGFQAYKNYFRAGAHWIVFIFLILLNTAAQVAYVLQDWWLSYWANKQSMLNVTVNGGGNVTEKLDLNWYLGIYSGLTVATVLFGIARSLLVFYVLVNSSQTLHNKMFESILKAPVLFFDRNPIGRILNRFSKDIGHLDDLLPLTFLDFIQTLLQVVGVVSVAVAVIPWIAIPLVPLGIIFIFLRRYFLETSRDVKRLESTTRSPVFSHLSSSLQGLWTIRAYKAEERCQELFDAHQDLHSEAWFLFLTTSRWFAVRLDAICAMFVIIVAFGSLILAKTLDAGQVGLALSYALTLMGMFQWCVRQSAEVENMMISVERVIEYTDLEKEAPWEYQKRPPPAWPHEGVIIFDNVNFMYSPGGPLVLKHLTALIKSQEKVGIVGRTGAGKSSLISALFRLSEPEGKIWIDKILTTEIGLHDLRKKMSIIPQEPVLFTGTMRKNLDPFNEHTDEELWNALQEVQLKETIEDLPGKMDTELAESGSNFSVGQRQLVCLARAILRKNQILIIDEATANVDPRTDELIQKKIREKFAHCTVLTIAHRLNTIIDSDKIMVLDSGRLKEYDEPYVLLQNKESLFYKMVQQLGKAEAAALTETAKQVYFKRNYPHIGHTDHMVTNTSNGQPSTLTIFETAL

[2] = molecular target: ATP-binding cassette sub-family C member 3 (Homo sapiens, UniProt O15438); experiment: Inhibition of human MRP3 overexpressed in Sf9 insect cell membrane vesicles assessed as uptake of [3H]-estradiol-17beta-D-glucuronide in presence of ATP and GSH measured after 10 mins by membrane vesicle transport assay; type: ADME, cell-based
[3] = molecular target: ATP-binding cassette sub-family C member 2 (Homo sapiens, UniProt Q92887); experiment: Inhibition of human MRP2 overexpressed in Sf9 cell membrane vesicles assessed as uptake of [3H]-estradiol-17beta-D-glucuronide in presence of ATP and GSH measured after 20 mins by membrane vesicle transport assay
ATP-binding cassette sub-family C member 2, sequence (Q92887 whole entry): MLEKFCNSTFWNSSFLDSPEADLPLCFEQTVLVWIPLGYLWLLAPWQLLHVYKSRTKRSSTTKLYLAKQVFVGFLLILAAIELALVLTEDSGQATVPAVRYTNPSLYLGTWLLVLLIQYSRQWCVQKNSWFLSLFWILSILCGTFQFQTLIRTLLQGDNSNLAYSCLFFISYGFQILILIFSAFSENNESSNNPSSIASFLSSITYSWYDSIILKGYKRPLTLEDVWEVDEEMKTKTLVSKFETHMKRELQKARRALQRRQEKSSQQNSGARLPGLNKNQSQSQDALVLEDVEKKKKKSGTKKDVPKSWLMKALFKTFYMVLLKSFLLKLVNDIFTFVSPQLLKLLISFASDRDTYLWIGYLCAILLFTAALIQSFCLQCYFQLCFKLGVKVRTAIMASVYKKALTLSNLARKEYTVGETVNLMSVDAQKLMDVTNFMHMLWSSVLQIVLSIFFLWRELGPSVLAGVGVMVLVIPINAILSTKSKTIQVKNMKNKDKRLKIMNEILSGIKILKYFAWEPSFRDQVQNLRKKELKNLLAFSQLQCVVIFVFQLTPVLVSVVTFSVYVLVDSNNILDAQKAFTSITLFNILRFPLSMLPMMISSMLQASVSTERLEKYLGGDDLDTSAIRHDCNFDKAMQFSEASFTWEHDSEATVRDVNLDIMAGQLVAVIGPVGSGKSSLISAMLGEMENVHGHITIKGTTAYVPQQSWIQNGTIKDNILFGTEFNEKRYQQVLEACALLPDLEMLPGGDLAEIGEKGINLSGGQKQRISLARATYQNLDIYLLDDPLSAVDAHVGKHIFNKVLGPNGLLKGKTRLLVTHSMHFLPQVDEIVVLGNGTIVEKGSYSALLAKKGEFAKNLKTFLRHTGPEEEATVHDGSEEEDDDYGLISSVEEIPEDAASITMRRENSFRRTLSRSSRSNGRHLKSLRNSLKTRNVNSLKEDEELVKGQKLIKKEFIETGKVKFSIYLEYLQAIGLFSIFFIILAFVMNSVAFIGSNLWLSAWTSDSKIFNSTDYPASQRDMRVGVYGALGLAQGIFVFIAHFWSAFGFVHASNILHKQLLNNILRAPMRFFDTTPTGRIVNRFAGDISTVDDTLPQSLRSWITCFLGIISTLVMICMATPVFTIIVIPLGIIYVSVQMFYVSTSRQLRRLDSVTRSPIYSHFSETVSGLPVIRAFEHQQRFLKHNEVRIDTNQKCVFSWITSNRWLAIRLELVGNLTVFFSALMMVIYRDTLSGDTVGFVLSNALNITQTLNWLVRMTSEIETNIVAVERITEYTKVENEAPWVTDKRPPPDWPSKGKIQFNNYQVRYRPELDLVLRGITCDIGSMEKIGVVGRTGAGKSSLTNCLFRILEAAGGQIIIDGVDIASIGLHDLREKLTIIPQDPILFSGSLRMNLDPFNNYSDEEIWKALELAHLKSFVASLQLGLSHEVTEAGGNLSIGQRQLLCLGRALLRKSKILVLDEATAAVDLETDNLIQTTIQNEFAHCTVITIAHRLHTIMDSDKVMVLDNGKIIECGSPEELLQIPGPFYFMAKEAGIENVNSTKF

ATP-binding cassette sub-family C member 3, sequence (O15438 whole entry): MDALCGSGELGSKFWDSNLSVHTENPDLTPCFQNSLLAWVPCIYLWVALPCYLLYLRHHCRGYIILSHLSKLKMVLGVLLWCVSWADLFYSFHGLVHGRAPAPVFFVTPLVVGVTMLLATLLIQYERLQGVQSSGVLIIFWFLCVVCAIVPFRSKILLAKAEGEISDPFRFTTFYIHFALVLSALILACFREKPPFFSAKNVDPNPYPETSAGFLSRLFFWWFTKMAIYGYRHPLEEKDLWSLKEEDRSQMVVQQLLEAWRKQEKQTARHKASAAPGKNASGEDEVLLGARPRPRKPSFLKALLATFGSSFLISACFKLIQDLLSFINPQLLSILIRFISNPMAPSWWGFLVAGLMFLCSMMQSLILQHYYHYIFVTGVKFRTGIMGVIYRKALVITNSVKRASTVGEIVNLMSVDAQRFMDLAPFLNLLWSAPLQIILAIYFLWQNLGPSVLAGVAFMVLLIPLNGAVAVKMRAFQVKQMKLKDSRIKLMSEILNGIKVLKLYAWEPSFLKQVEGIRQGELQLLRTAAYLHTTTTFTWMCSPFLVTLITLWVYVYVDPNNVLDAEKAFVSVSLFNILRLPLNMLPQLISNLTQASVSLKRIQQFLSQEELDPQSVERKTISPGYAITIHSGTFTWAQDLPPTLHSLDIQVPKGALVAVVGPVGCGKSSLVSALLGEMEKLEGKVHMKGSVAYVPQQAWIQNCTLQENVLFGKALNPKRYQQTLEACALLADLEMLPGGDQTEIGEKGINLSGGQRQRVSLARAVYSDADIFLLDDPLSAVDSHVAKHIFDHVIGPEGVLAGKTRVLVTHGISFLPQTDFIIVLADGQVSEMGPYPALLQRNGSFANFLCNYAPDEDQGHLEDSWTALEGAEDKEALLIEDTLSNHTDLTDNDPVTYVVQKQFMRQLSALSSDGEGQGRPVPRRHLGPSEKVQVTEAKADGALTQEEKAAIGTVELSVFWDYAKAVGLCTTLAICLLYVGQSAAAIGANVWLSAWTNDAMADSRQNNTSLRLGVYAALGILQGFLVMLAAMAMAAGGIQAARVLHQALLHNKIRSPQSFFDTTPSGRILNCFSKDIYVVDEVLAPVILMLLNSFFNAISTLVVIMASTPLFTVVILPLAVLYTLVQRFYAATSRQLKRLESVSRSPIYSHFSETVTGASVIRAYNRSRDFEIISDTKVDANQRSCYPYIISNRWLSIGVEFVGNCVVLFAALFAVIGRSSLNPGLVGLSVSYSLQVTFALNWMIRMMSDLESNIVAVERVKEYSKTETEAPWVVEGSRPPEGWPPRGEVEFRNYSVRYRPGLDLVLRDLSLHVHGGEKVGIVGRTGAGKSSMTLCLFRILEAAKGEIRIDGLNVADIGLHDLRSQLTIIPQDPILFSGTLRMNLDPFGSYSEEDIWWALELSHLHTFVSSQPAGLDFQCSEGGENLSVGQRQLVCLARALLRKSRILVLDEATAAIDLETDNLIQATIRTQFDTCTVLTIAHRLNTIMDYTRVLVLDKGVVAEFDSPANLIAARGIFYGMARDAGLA

SMILES | IC50 [1] | IC50 [2] | IC50 [3]
CC(C)[C@@H]1NC(=O)[C@H](C)OC(=O)[C@@H](C(C)C)NC(=O)[C@@H](C(C)C)OC(=O)[C@H](C(C)C)NC(=O)[C@H](C)OC(=O)[C@@H](C(C)C)NC(=O)[C@@H](C(C)C)OC(=O)[C@H](C(C)C)NC(=O)[C@H](C)OC(=O)[C@@H](C(C)C)NC(=O)[C@@H](C(C)C)OC1=O [VALINOMYCIN] | > 133 µM | > 133 µM | > 133 µM
COCCCC/C(=N\OCCN)c1ccc(C(F)(F)F)cc1 [FLUVOXAMINE MALEATE] | > 133 µM | > 133 µM | > 133 µM
C#C[C@@]1(O)CC[C@H]2[C@@H]3CCC4=CC(=O)CC[C@@H]4[C@H]3CC[C@@]21C | > 133 µM | > 133 µM | > 133 µM
CN(C)CCCN1c2ccccc2CCc2ccccc21 [IMIPRAMINE] | > 133 µM | > 133 µM | > 133 µM
CN(C)CCC=C1c2ccccc2COc2ccccc21 [DOXEPIN] | > 133 µM | > 133 µM | > 133 µM
C[C@]12CC[C@H]3[C@@H](CCC4=CC(=O)CC[C@@]43C)[C@@H]1CC[C@@H]2O [TESTOSTERONE] | > 133 µM | > 133 µM | > 133 µM
CCS(=O)(=O)CCn1c([N+](=O)[O-])cnc1C [TINIDAZOLE] | > 133 µM | > 133 µM | > 133 µM
Nc1ccc(S(=O)(=O)c2ccc(N)cc2)cc1 [DAPSONE] | > 133 µM | > 133 µM | > 133 µM
COCCc1ccc(OCC(O)CNC(C)C)cc1 (configuration not stated) [METOPROLOL] | > 133 µM | > 133 µM | > 133 µM
CC(C)NCC(O)COc1cccc2ccccc12 (configuration not stated) [PROPRANOLOL] | > 133 µM | > 133 µM | > 133 µM
CCN(CC)CCCC(C)Nc1ccnc2cc(Cl)ccc12 (configuration not stated) [CHLOROQUINE] | 104 µM | > 133 µM | > 133 µM
Cn1cc[nH]c1=S [METHIMAZOLE] | > 133 µM | > 133 µM | > 133 µM
CN1CCN2c3ncccc3Cc3ccccc3C2C1 (configuration not stated) [MIRTAZAPINE] | > 133 µM | > 133 µM | > 133 µM
O=C(N[C@H](CO)[C@H](O)c1ccc([N+](=O)[O-])cc1)C(Cl)Cl [CHLORAMPHENICOL] | > 133 µM | > 133 µM | –
CCN(CC)CC(=O)Nc1c(C)cccc1C [LIDOCAINE] | > 133 µM | > 133 µM | > 133 µM
CCN(CC)CCNC(=O)c1c(C)[nH]c(/C=C2\C(=O)Nc3ccc(F)cc32)c1C | > 133 µM | > 133 µM | > 133 µM
CCN(CC)C(=S)SSC(=S)N(CC)CC | > 133 µM | > 133 µM | > 133 µM
CC[C@H]1OC(=O)[C@H](C)[C@@H](O[C@H]2C[C@@](C)(OC)[C@@H](O)[C@H](C)O2)[C@H](C)[C@@H](O[C@@H]2O[C@H](C)C[C@H](N(C)C)[C@H]2O)[C@](C)(O)C[C@@H](C)C(=O)[C@H](C)[C@@H](O)[C@]1(C)O [ERYTHROMYCIN] | > 133 µM | > 133 µM | > 133 µM
CC[C@H]1OC(=O)[C@H](C)[C@@H](O[C@H]2C[C@@](C)(OC)[C@@H](O)[C@H](C)O2)[C@H](C)[C@@H](O[C@@H]2O[C@H](C)C[C@H](N(C)C)[C@H]2O)[C@](C)(O)C[C@@H](C)C(=O)[C@H](C)[C@@H](O)[C@]1(C)O | 68.2 µM | > 133 µM | > 133 µM
CN(C)C(=N)N=C(N)N [METFORMIN] | > 133 µM | > 133 µM | > 133 µM
CNCCC(Oc1ccc(C(F)(F)F)cc1)c1ccccc1 (configuration not stated) [FLUOXETINE] | > 133 µM | > 133 µM | > 133 µM
Clc1ccc2c(c1)CCc1cccnc1C2=C1CCNCC1 [DESLORATADINE] | > 133 µM | > 133 µM | > 133 µM
COCCOC(=O)C1=C(C)NC(C)=C(C(=O)OC(C)C)C1c1cccc([N+](=O)[O-])c1 (configuration not stated) [NIMODIPINE] | > 133 µM | > 133 µM | > 133 µM

SMILES | IC50 [1] | IC50 [2] | IC50 [3]
Cc1ccc(Nc2c(F)cccc2Cl)c(CC(=O)O)c1 [LUMIRACOXIB] | > 133 µM | > 133 µM | > 133 µM
Nc1cc(N2CCCCC2)nc(N)[n+]1[O-] [MINOXIDIL] | > 133 µM | > 133 µM | > 133 µM
CN(C)CCC(c1ccc(Br)cc1)c1ccccn1 (configuration not stated) [BROMPHENIRAMINE MALEATE] | > 133 µM | > 133 µM | > 133 µM
CCn1cc(C(=O)O)c(=O)c2cc(F)c(N3CCNCC3)cc21 [NORFLOXACIN] | > 133 µM | > 133 µM | > 133 µM
CO[C@@]1(NC(=O)C2SC(=C(C(N)=O)C(=O)O)S2)C(=O)N2C(C(=O)O)=C(CSc3nnnn3C)CS[C@@H]21 (some centres not stated) [CEFOTETAN] | – | 79 µM | –
Cc1ncc([N+](=O)[O-])n1CCO [METRONIDAZOLE] | > 133 µM | > 133 µM | > 133 µM
CC(C)(C)NCC(O)c1ccc(O)c(CO)c1 (configuration not stated) [ALBUTEROL] | > 133 µM | > 133 µM | > 133 µM
Clc1ccccc1CN1CCc2sccc2C1 [TICLOPIDINE HYDROCHLORIDE] | > 133 µM | > 133 µM | > 133 µM
O=C(O)c1cc(/N=N/c2ccc(S(=O)(=O)Nc3ccccn3)cc2)ccc1O [SULFASALAZINE] | 1.5 µM | 14.6 µM | –
C=C(CC)C(=O)c1ccc(OCC(=O)O)c(Cl)c1Cl [ETHACRYNIC ACID] | > 133 µM | 95.9 µM | 3.85 µM
CN[C@@H]1C[C@H]2O[C@@](C)([C@@H]1OC)n1c3ccccc3c3c4c(c5c6ccccc6n2c5c31)C(=O)NC4 [STAUROSPORINE] | 37.9 µM | > 133 µM | > 133 µM
N#C[C@@H]1C[C@@H]2C[C@@H]2N1C(=O)[C@@H](N)C12CC3CC(CC(O)(C3)C1)C2 [SAXAGLIPTIN HYDROCHLORIDE] | > 133 µM | > 133 µM | > 133 µM
C[C@@H](c1ncncc1F)[C@](O)(Cn1cncn1)c1ccc(F)cc1F [VORICONAZOLE] | > 133 µM | > 133 µM | > 133 µM
NC(=O)NO [HYDROXYUREA] | > 133 µM | > 133 µM | > 133 µM
COc1ccc(CCN(C)CCCC(C#N)(c2ccc(OC)c(OC)c2)C(C)C)cc1OC (configuration not stated) | – | > 133 µM | > 133 µM
CC/C(=C(\c1ccccc1)c1ccc(OCCN(C)C)cc1)c1ccccc1 [TAMOXIFEN] | > 133 µM | > 133 µM | > 133 µM
OCCOCCN1CCN(C2=Nc3ccccc3Sc3ccccc32)CC1 [QUETIAPINE FUMARATE] | > 133 µM | > 133 µM | > 133 µM
Cn1cnc([N+](=O)[O-])c1Sc1ncnc2nc[nH]c12 [AZATHIOPRINE] | > 133 µM | > 133 µM | > 133 µM
O=C(O)c1cn(C2CC2)c2cc(N3CCNCC3)c(F)cc2c1=O [CIPROFLOXACIN] | > 133 µM | > 133 µM | > 133 µM
O=C(CCCN1CCC(O)(c2ccc(Cl)cc2)CC1)c1ccc(F)cc1 [HALOPERIDOL] | > 133 µM | > 133 µM | –
O=C(O)CCc1nc(-c2ccccc2)c(-c2ccccc2)o1 [OXAPROZIN] | – | > 133 µM | > 133 µM
C[C@]12CC[C@@H]3c4ccc(O)cc4CC[C@H]3[C@@H]1CC[C@@H]2O [ESTRADIOL] | > 133 µM | > 133 µM | –

From ChEMBL document CHEMBL4028801, “A multifactorial approach to hepatobiliary transporter assessment enables improved therapeutic compound development” (Toxicol Sci, 2013)
